Assay results published in patent US7220746B2, “Pyrrolidinedione substituted piperidine-phthalazones as PDE4 inhibitors” (Altana Pharma AG, priority 2002, dated 2007).

System: PDE4 activity (cytosol from human neutrophils)
Test: Inhibition of PDE4 activity
Format: biochemical
Design: unit not given here
Conditions: 0.5 μM cAMP, Motapizone 1 μM included to suppress PDE3
Procedure: Method for Measuring Inhibition of PDE4 Activity
PDE4 activity was determined as described by Thompson et al. (Adv Cycl Nucl Res 10: 69–92, 1979) with some modifications (Bauer and Schwabe, Naunyn-Schmiedeberg's Arch Pharmacol 311: 193–198, 1980). At a final assay volume of 200 μl (96well microliter plates) the assay mixture contained 20 mM Tris (pH 7.4), 5 mM MgCl2, 0.5 μM cAMP, [^3H]CAMP (about 30,000 cpm/assay), the test compound and an aliquot of cytosol from human neutrophils which mainly contains PDE4 activity as described by Schudt et al. (Naunyn-Schmiedeberg's Arch Pharmacol 344: 682–690, 1991); the PDE3-specific inhibitor Motapizone (1 μM) was included to suppress PDE3 activity originating from contaminating platelets. […]
After preincubation for 5 min at 37° C., the reaction was started by the addition of substrate (cAMP) and the assays were incubated for further 15 min at 37° C. […] The columns were eluted with 2 ml of 30 mM ammonium formiate (pH 6.0) and the eluate was counted for radioactivity. Results were corrected for blank values (measured in the presence of denatured protein) which were below 5% of total radioactivity. […] The IC50-values for the compounds according to the invention for the inhibition of the PDE4 activity were determined from the concentration-inhibition curves by nonlinear-regression.

COc1ccc(C2=NN(C3CCN(C(=O)CN4C(=O)CCC4=O)CC3)C(=O)[C@@H]3CC=CC[C@H]23)cc1OC [Example 1, 1-(2-{4-[(4aS,8aR)-4-(3,4-Dimethoxy-phenyl)-1-oxo-4a,5,8,8a-tetrahydro-yl]-piperidin-1-yl}-2-oxo-ethyl)-pyrrolidine-2,5-dione]
Inhibition of PDE4 activity, −logIC50: 10.66
